Measurements: patent publication US8722849B2, “Polypeptides” (Novo Nordisk A/S, priority 2011, dated 2014)
In brackets after ≈: the same amount, converted by molar mass. Where two headings read alike, the source gives them in different places. Starred links: 1 amine or outer side, 2 acyl side, 3 side chain; linkers in the order of their positions; H or OH if unused. Positions of bridges follow the written chain, without caps; N, C: chain ends. Residues, ends and D or L forms follow the SMILES beside them. Groups on a side chain read outwards from the residue. *: point of attachment. C20 diacid = O=C(O)CCCCCCCCCCCCCCCCCCC(=O)*; γGlu = O=C(O)[C@H](CCC(=O)[*:2])N[*:1]; AEEA = NCCOCCOCC(=O)O

Assay: Assay (IV) determination of solubility
Assay type: physicochemical
Procedure, shortened: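 Polypeptide in water (~500 nmol/ml stock) was mixed 1:1 with 100 mM buffers from pH 3.0 to 8.0 (glycylglycine pH 3.0–5.0; bistrispropane pH 6.0–8.0). After 18 hours at room temperature, samples were centrifuged and the polypeptide remaining in solution was quantified by HPLC.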

[1] = pH 3, pH 3.0, read-out: Solubility pH 3.0
[2] = pH 4, pH 4.0, 18 hours at room temperature, Table 2, read-out: Solubility pH 4.0
[3] = pH 4, pH 4.0, read-out: Solubility pH 4.0
[4] = pH 5, pH 5.0, read-out: Solubility pH 5.0
[5] = pH 6, pH 6.0, read-out: Solubility pH 6.0
[6] = pH 6.5, pH 6.5, read-out: Solubility pH 6.5
[7] = pH 7, pH 7.0, read-out: Solubility pH 7.0
[8] = pH 7.5, pH 7.5, read-out: Solubility pH 7.5
[9] = pH 8, pH 8.0, read-out: Solubility pH 8.0

CC[C@H](C)[C@H](NC(=O)[C@@H]1CCCN1C(=O)CNC(=O)[C@H](Cc1ccccc1)NC(=O)[C@H](CC(N)=O)NC(=O)[C@H](CC(N)=O)NC(=O)[C@H](CO)NC(=O)[C@H](CO)NC(=O)[C@H](Cc1c[nH]cn1)NC(=O)[C@H](CCCNC(=N)N)NC(=O)[C@H](CC(C)C)NC(=O)[C@H](Cc1ccccc1)NC(=O)[C@H](CCC(=O)O)NC(=O)[C@H](C)NC(=O)[C@H](CC(C)C)NC(=O)[C@H](CCCNC(=N)N)NC(=O)[C@H](CCC(N)=O)NC(=O)[C@@H](NC(=O)[C@H](C)NC(=O)[C@@H]1CSSC[C@H](NC(=O)[C@@H](N)CCCCNC(=O)CC[C@H](NC(=O)CCCCCCCCCCCCCCCCCCC(=O)O)C(=O)O)C(=O)N[C@@H](CC(N)=O)C(=O)N[C@@H]([C@@H](C)O)C(=O)N[C@@H](C)C(=O)N[C@@H]([C@@H](C)O)C(=O)N1)[C@@H](C)O)C(=O)N[C@@H](CC(C)C)C(=O)N1CCC[C@H]1C(=O)N1CCC[C@H]1C(=O)N[C@H](C(=O)N[C@@H](CC(N)=O)C(=O)N[C@H](C(=O)NCC(=O)N[C@@H](CO)C(=O)N[C@@H](CC(N)=O)C(=O)N[C@H](C(=O)N1CCC[C@H]1C(N)=O)[C@@H](C)O)C(C)C)[C@@H](C)O [Example 177, N-epsilon1-[(S)-4-Carboxy-4-(19-carboxynonadecanoylamino)butyryl]-[Glu14,Arg17,Pro37]-pramlintide]
solubility [1]: > 200 µM | solubility [2]: > 200 µM | solubility [3]: > 200 µM | solubility [4]: > 200 µM | solubility [5]: > 200 µM | solubility [6]: > 200 µM | solubility (pH 7, pH 7.0, 18 hours at room temperature, Table 3, read-out: Solubility pH 7.0): > 200 µM | solubility [7]: > 200 µM | solubility [8]: > 200 µM | solubility [9]: > 200 µM

CC[C@H](C)[C@H](NC(=O)[C@@H]1CCCN1C(=O)CNC(=O)[C@H](Cc1ccccc1)NC(=O)[C@H](CC(N)=O)NC(=O)[C@H](CCCCNC(=O)COCCOCCNC(=O)COCCOCCNC(=O)CC[C@H](NC(=O)CCCCCCCCCCCCCCCCCCC(=O)O)C(=O)O)NC(=O)[C@H](CO)NC(=O)[C@H](CO)NC(=O)[C@H](Cc1c[nH]cn1)NC(=O)[C@@H](NC(=O)[C@H](CC(C)C)NC(=O)[C@H](Cc1ccccc1)NC(=O)[C@H](CCC(=O)O)NC(=O)[C@H](C)NC(=O)[C@H](CC(C)C)NC(=O)[C@H](CCCNC(=N)N)NC(=O)[C@H](CCC(N)=O)NC(=O)[C@@H](NC(=O)[C@H](C)NC(=O)[C@@H]1CSSC[C@H](NC(=O)[C@@H](N)CCCCN)C(=O)N[C@@H](CC(N)=O)C(=O)N[C@@H]([C@@H](C)O)C(=O)N[C@@H](C)C(=O)N[C@@H]([C@@H](C)O)C(=O)N1)[C@@H](C)O)C(C)C)C(=O)N[C@@H](CC(C)C)C(=O)N[C@@H](CO)C(=O)N[C@@H](CO)C(=O)N[C@H](C(=O)N[C@@H](CC(N)=O)C(=O)N[C@H](C(=O)NCC(=O)N[C@@H](CO)C(=O)N[C@@H](Cc1c[nH]cn1)C(=O)N[C@H](C(=O)N[C@@H](Cc1ccc(O)cc1)C(N)=O)[C@@H](C)O)C(C)C)[C@@H](C)O [Example 131, N-epsilon21-[2-(2-{2-[2-(2-{2-[(S)-4-Carboxy-4-(19-carboxyheptadecanoylamino)butyrylamino]ethoxy}ethoxy)acetylamino]ethoxy}ethoxy)acetyl]-[Glu14,Lys21,Ser28,Ser29,His35]-pramlintide] (H-KCNTATCATQRLAEFLVHSSK([AEEA-AEEA-γGlu-C20 diacid])NFGPILSSTNVGSHTY-NH2; disulfide 2-7)
solubility [1]: > 200 µM | solubility [2]: 172 µM (≈ 813 µg/mL) | solubility [3]: 172 µM (≈ 813 µg/mL) | solubility [4]: 150 µM (≈ 709 µg/mL) | solubility [5]: 25 µM (≈ 118 µg/mL) | solubility [6]: 27 µM (≈ 128 µg/mL) | solubility [7]: 6 µM (≈ 28.4 µg/mL) | solubility [8]: 4 µM (≈ 18.9 µg/mL) | solubility [9]: 3 µM (≈ 14.2 µg/mL)

CC[C@H](C)[C@H](NC(=O)[C@H](CCCCNC(=O)COCCOCCNC(=O)COCCOCCNC(=O)CC[C@H](NC(=O)CCCCCCCCCCCCCCCCCCC(=O)O)C(=O)O)NC(=O)CNC(=O)[C@H](Cc1ccccc1)NC(=O)[C@H](CC(N)=O)NC(=O)[C@H](CC(N)=O)NC(=O)[C@H](CO)NC(=O)[C@H](CO)NC(=O)[C@H](Cc1c[nH]cn1)NC(=O)[C@H](Cc1c[nH]cn1)NC(=O)[C@H](CC(C)C)NC(=O)[C@H](Cc1ccccc1)NC(=O)[C@H](CC(N)=O)NC(=O)[C@H](C)NC(=O)[C@H](CC(C)C)NC(=O)[C@H](CCCNC(=N)N)NC(=O)[C@H](CCC(N)=O)NC(=O)[C@@H](NC(=O)[C@H](C)NC(=O)[C@@H]1CSSC[C@H](NC(=O)[C@@H](N)CCCCN)C(=O)N[C@@H](CC(N)=O)C(=O)N[C@@H]([C@@H](C)O)C(=O)N[C@@H](C)C(=O)N[C@@H]([C@@H](C)O)C(=O)N1)[C@@H](C)O)C(=O)N[C@@H](CC(C)C)C(=O)N[C@@H](CO)C(=O)N[C@@H](CO)C(=O)N[C@H](C(=O)N[C@@H](CC(N)=O)C(=O)N[C@H](C(=O)NCC(=O)N[C@@H](CO)C(=O)N[C@@H](Cc1c[nH]cn1)C(=O)N[C@H](C(=O)N[C@@H](Cc1ccc(O)cc1)C(N)=O)[C@@H](C)O)C(C)C)[C@@H](C)O [Example 140, N-epsilon25-[2-(2-{2-[2-(2-{2-[(S)-4-Carboxy-4-(19-carboxyheptadecanoylamino)butyrylamino]ethoxy}ethoxy)acetylamino]ethoxy}ethoxy)acetyl]-[His17,Lys25,Ser28,Ser29,His35]-pramlintide] (H-KCNTATCATQRLANFLHHSSNNFGK([AEEA-AEEA-γGlu-C20 diacid])ILSSTNVGSHTY-NH2; disulfide 2-7)
solubility [1]: > 200 µM | solubility [2]: > 200 µM | solubility [3]: > 200 µM | solubility [4]: 104 µM (≈ 496 µg/mL) | solubility [5]: 2 µM (≈ 9.53 µg/mL) | solubility [6]: 1 µM (≈ 4.77 µg/mL) | solubility [7]: 1 µM (≈ 4.77 µg/mL) | solubility [8]: 1 µM (≈ 4.77 µg/mL)

CC[C@H](C)[C@H](NC(=O)[C@@H]1CCCN1C(=O)CNC(=O)[C@H](Cc1ccccc1)NC(=O)[C@H](CC(N)=O)NC(=O)[C@H](CO)NC(=O)[C@H](CO)NC(=O)[C@H](CO)NC(=O)[C@H](Cc1c[nH]cn1)NC(=O)[C@H](Cc1c[nH]cn1)NC(=O)[C@H](CC(C)C)NC(=O)[C@H](Cc1ccccc1)NC(=O)[C@H](CCC(=O)O)NC(=O)[C@H](C)NC(=O)[C@H](CC(C)C)NC(=O)[C@H](CCCNC(=N)N)NC(=O)[C@H](CCC(N)=O)NC(=O)[C@@H](NC(=O)[C@H](C)NC(=O)[C@@H]1CSSC[C@H](NC(=O)[C@H](Cc2c[nH]cn2)NC(=O)COCCOCCNC(=O)COCCOCCNC(=O)CC[C@H](NC(=O)CCCCCCCCCCCCCCCCCCC(=O)O)C(=O)O)C(=O)N[C@@H](CC(N)=O)C(=O)N[C@@H]([C@@H](C)O)C(=O)N[C@@H](C)C(=O)N[C@@H]([C@@H](C)O)C(=O)N1)[C@@H](C)O)C(=O)N[C@@H](CC(C)C)C(=O)N1CCC[C@H]1C(=O)N1CCC[C@H]1C(=O)N[C@H](C(=O)N[C@@H](CC(N)=O)C(=O)N[C@H](C(=O)NCC(=O)N[C@@H](CO)C(=O)N[C@@H](Cc1c[nH]cn1)C(=O)N[C@H](C(=O)N[C@@H](Cc1ccc(O)cc1)C(N)=O)[C@@H](C)O)C(C)C)[C@@H](C)O [Example 119, N-alpha-[2-(2-{2-[2-(2-{2-[(S)-4-Carboxy-4-(19-carboxyheptadecanoylamino)butyrylamino]ethoxy}ethoxy)acetylamino]ethoxy}ethoxy)acetyl]-[His1,Glu14,His17,Ser21,His35]-pramlintide] ({C20 diacid-γGlu-AEEA-AEEA}-HCNTATCATQRLAEFLHHSSSNFGPILPPTNVGSHTY-NH2; disulfide 2-7)
solubility [1]: > 200 µM | solubility [2]: > 200 µM | solubility [3]: > 200 µM | solubility [4]: > 200 µM | solubility [5]: 32 µM (≈ 152 µg/mL) | solubility [6]: 3 µM (≈ 14.3 µg/mL) | solubility [7]: 13 µM (≈ 61.8 µg/mL) | solubility [8]: 114 µM (≈ 542 µg/mL) | solubility [9]: > 200 µM
